Reference: patent US20110124607A1, “COMPOSITION FOR REGULATION CELLULAR SENESCENCE COMPRISING LYSOPHOSPHATIDIC ACID AND INHIBITOR OF ADENYLYL CYCLASE AS ACTIVE INGREDIENTS” (priority 2008, published 2011)

Assays:
[1] = system: senescent cells (human fibroblasts); assay: Cell proliferation by counting live cells (trypan blue), senescent cells; assay type: cell-based; details: serum-starved 2 days, counted day 1, 2, 4, 30 μM LPA, 300 μM ACI, 10 mM AMPKI, 10 mM AICAR
Method: Human fibroblasts were prepared by primary culture of foreskin of a newborn baby (Boyce and Ham, 1983). The primary culture was performed in DMEM supplemented with 10% FBS and 1% antibiotics. The protein contents of young cells from the early stage of sub-culture, with a population doubling (PD) of less than 25, were compared to those of at least PD 65-70 senescent cells. […] In senescent cells, the activity of beta-galactosidase was increased and cell proliferation was reduced (Yeo et al., 2000).
Prior to LPA and ACI treatment, cells were grown for 1-2 days to 60-70% sub-confluence in DMEM-containing culture medium, and then serum-starved to quiescence (that is Go/G1 arrest) by incubation in a serum-free medium containing 0.1% bovine serum albumin (BSA) for 2 days. Young and senescent cells were treated with LPA, ACI, LPA+ACI, AMPKI and AICAR, respectively. Live cells were measured after staining the cells with trypan blue on day 1, day 2 and day 4 to confirm cell proliferation.
Cell proliferation and cAMP level were increased by LPA in senescent cells (Yeo et al., 2002). The AC inhibitor (ACI) was added to reduce cAMP which had been increased by LPA. And then, cell proliferation was investigated. Cells were cultured in serum-free medium for 2 days to arrest them in G0/G1 phase. Then, the cells were treated with LPA, ACI or LPA+ACI. Total cell number was measured on day 1, day 2 and day 4, or the cells entered into S phase were counted to evaluate cell proliferation. When young cells were treated with 300 μM of ACI, cell proliferation was reduced, compared with control (FIG. 1A). In the meantime, when senescent cells were treated with 300 μM of ACI, cell proliferation was increased, compared with control (FIG. 1B).

[2] = system: fibroblasts (young and senescent cells); assay: Soft agar assay (colony formation); assay type: cell-based, human; details: 30 μM LPA, 300 μM ACI, three weeks
Method: Young and senescent cells were distributed in DMEM containing 10% bovine serum and 0.3% top agar, which were loaded on 0.6% basic agar layer in 60 mm culture dish. The cells treated with 30 μM LPA (L), 300 μM ACI (A), or both LPA and ACI for three weeks were fixed with 70% ethanol, and so was the control treated with nothing. After staining the cells with trypan blue, colonies were counted under microscope. HeLa and HepG2 cancer cell lines were distributed on soft agar dish, as positive controls, followed by treatment with LPA, ACI, or LPA+ACI. Colony formation was also analysed. The number of colonies formed in soft agar dish was plotted as mean+/− standard deviation and each measurement was repeated at least three times.
LPA and ACI were treated to fibroblast and cancer cell groups, followed by soft agar assay. […] From the above results, it was confirmed that LPA and ACI induce normal cell proliferation but not cause any transformation of cells to turn them into tumor.

p-Thr172-AMPKα = assay: Immuno-blotting of p-Thr172-AMPKα; assay type: cell-based, human; details: for p-Thr172-AMPKα expression after suppressing PKA: senescent cells pre-treated with 10 mM PKA inhibitor Rp-cAMP for one hour; for Thr172-AMPKα phosphorylation: 30 μM LPA, 300 μM ACI, 10 mM AMPKI, 10 mM AICAR, up to day 4
Method: (§1) (A) and (B): Young and senescent cells were serum-starved for 2 days, followed by treatment with 10 mM of AMPK inhibitor […]) or 10 mM of AMPK activator AICAR(B) for 4 days. Proteins were extracted from the treated cells and the levels of AMPKα and p-Thr172-AMPKα, total p53, p-Ser15-p53 and […] measured by immuno-blotting. (C) and (D): Young cells (C) and senescent cells (D) were treated with 10 mM AMPKI or 10 mM AICAR and cultured for 4 days, followed by measurement of cell proliferation by cell counting. At this time, the experiment was repeated three times (p<0.001). (A) and (B) are photographs illustrating the results of immuno-blotting. Precisely, sub-cultured young cells (PD 18: A) and senescent cells (PD 64: B) were treated with 30 μM of LPA […] and ACI singly or together, followed by further culture for 1, 2, and 4 days. Proteins were extracted from the cultured cells and the levels of AMPKα, […] β-actin were quantified by immuno-blotting. (A) and (B) are photographs illustrating the results of immuno-blotting. Precisely, senescent cells (PD 64) were pre-treated with 10 mM of PKA inhibitor Rp-cAMP for one hour, followed by treatment with LPA(A) or ACI(B). After culturing the cells for 1, 2, and 4 days, proteins were extracted from the cultured cells and the levels of AMPKα, […] β-actin were quantified by immuno-blotting using 45 μg of the protein. To analyse protein expression, human fibroblasts were lysed in cold lysis buffer (25 mM Hepes, pH 8.0, 150 mM NaCl, 1 mM EDTA, 1 mM Na3VO4, 1 mM NaF, 1% Triton X-100 and protease inhibitors), followed by centrifugation at 4° C. at 9,000 rpm for 10 minutes to obtain supernatant. Protein in the extract was quantified […]. SDS-PAGE electrophoresis was performed with equal amount of the protein (45 μg) to separate. The separated protein was transferred onto NC membrane from the electrophoresis gel. Non-specific protein binding was blocked by blocking the blot (transferred NC membrane) using TTBS […] containing 5% skim milk for one hour. Then, antigen-antibody reaction was induced with diluted primary antibody at 4° C. for overnight. The blot was washed with TTBS, followed by reaction with horseradish peroxidase conjugated anti-IgGs diluted in TTBS containing 5% skim milk (1:5000) at room temperature for one hour. The blot was washed again with TTBS to eliminate non-specific binding of antigen-antibody. Photographs were developed/printed on X-ray film (Kodak) using ECL kit (Pierce) containing peroxidase substrate to identify each protein.

p-Ser15-p53 = assay: Immuno-blotting of p-Ser15-p53; assay type: cell-based, human; details: for p-Ser15-p53 expression after suppressing PKA: senescent cells pre-treated with 10 mM PKA inhibitor Rp-cAMP for one hour; for p-Ser15-p53 expression: senescent cells, 30 μM LPA, 300 μM ACI, 10 mM AMPKI, 10 mM AICAR
Method: as §1

colony formation in soft agar (transformation) [2] | Molecule | cell proliferation (cell number) compared with control [1] | p-Thr172-AMPKα expression after suppressing PKA (p-Thr172-AMPKα) | Thr172-AMPKα phosphorylation (p-Thr172-AMPKα; senescent cells) | Thr172-AMPKα phosphorylation (p-Thr172-AMPKα; young cells) | p-Ser15-p53 expression after suppressing PKA (p-Ser15-p53) | p-Ser15-p53 expression (p-Ser15-p53)
did not form any colony | Nc1ncnc2c1ncn2C1CCCO1 (centres unmarked) [ACI, 9-(tetrahydro-2′-furyl)adenine] | increased | not changed | reduced | began to increase | not changed | reduced
did not form any colony | lysophosphatidic acid [LPA] | increase | not changed at all | reduced | reduced | not changed at all | reduced
